Laboratory results as given in patent US12215140B2, “Method of stabilizing protein contained in specimen and solution for stabilizing protein contained in specimen” (EIKEN KAGAKU KABUSHIKI KAISHA, priority 2018, dated 2025).

Tested on: hemoglobin-haptoglobin complex
Test: Stability of hemoglobin (as hemoglobin-haptoglobin complex) in samples preserved at 37° C. in preservation solution containing 1 unit/L haptoglobin, Hb measured by latex agglutination method (Examples 1 to 7)
Design: species or system human
Conditions: 37° C.
Experimental: Preservation solutions were prepared with the addition of 40 mmol/L HEPES (pH 6.8), 0.1% BSA, 0.1% NaN3, 1 unit/L haptoglobin, and 0 to 100 mmol/L phenylboronic acid. Samples obtained by adding hemoglobin-added fecal specimens to the preservation solutions so that the fecal concentration would be 0.5% were preserved at 37° C. for 0, 7, 14, and 21 days. The fecal specimens were added with hemoglobin having an amount such that the hemoglobin concentration in the samples would be about 300 μg/L. Instead of the fecal specimens to which hemoglobin was added, samples containing no fecal specimens, in which hemoglobin was added to the preservation solutions so that the hemoglobin concentration in the samples would be 300 μg/L, were similarly preserved. The hemoglobin (Hb) concentrations (μg/L) in the preserved samples were measured by the latex agglutination method.
The concentrations of hemoglobin were measured using “OC-Hemodia (registered trademark) Auto III ‘EIKEN’” (available from EIKEN CHEMICAL CO., LTD.) as a measurement reagent and “OC-sensor DIANA” (available from EIKEN CHEMICAL CO., LTD.) as a measurement device. The above measurement reagent contains latex particles immobilizing an anti-human hemoglobin rabbit polyclonal antibody.
From the measured concentrations of hemoglobin, the recovery ratios (%) were calculated with respect to the hemoglobin concentrations immediately after the fecal specimens were added to the preservation solutions (i.e., concentrations 0 days after the fecal specimens were added).
(§1) For comparative examples, preservation solutions to which no arylboronic acid was added were prepared, and testing was conducted in the same manner.
(§2) The concentration of phenylboronic acid in the preservation solutions of Example 1 was fixed to 15 mmol/L, preservation solutions to which a sugar (sorbitol, sucrose, trehalose, glucose, fructose, or mannitol) was further added at 50 mmol/L or 100 mmol/L or preservation solutions to which no sugar was added were prepared, and testing was conducted in the same manner as in Example 1. For comparative examples, preservation solutions to which the phenylboronic acid and sugar were not added were prepared, and testing was conducted in the same manner.
Preservation solutions in which sorbitol, sucrose, trehalose, glucose, fructose, or mannitol was added at 100 mmol/L to the preservation solutions of Example 1 containing no phenylboronic acid were prepared, and testing was conducted in the same manner as in Example 1. For comparison, the same testing was conducted without adding these sugars.
as §2, with “sorbitol” for “a sugar (sorbitol, sucrose, trehalose, glucose, fructose, or mannitol)”, “was” for “was further”, “10 to 500” for “50”, “sucrose was added at 10 to 250” for “100”
as §1

[1] = Feces 1, sugar 50 mmol/L + phenylboronic acid 15 mmol/L, 0 days
[2] = Feces 1, sugar 50 mmol/L + phenylboronic acid 15 mmol/L, 7 days
[3] = Feces 1, sugar 50 mmol/L + phenylboronic acid 15 mmol/L, 14 days
[4] = Feces 1, sugar 50 mmol/L + phenylboronic acid 15 mmol/L, 21 days
[5] = Feces 1, sugar 100 mmol/L + phenylboronic acid 0.5 mmol/L, 0 days
[6] = Feces 1, sugar 100 mmol/L + phenylboronic acid 0.5 mmol/L, 7 days
[7] = Feces 1, sugar 100 mmol/L + phenylboronic acid 0.5 mmol/L, 14 days
[8] = Feces 1, sugar 100 mmol/L + phenylboronic acid 15 mmol/L, 0 days
[9] = Feces 1, sugar 100 mmol/L + phenylboronic acid 15 mmol/L, 0 days (Table 7)
[10] = Feces 1, sugar 100 mmol/L + phenylboronic acid 15 mmol/L, 7 days
[11] = Feces 1, sugar 100 mmol/L + phenylboronic acid 15 mmol/L, 7 days (Table 7)
[12] = Feces 1, sugar 100 mmol/L + phenylboronic acid 15 mmol/L, 14 days
[13] = Feces 1, sugar 100 mmol/L + phenylboronic acid 15 mmol/L, 14 days (Table 7)
[14] = Feces 1, sugar 100 mmol/L + phenylboronic acid 15 mmol/L, 21 days
[15] = Feces 1, sugar 100 mmol/L + phenylboronic acid 50 mmol/L, 0 days
[16] = Feces 1, sugar 100 mmol/L + phenylboronic acid 50 mmol/L, 7 days
[17] = Feces 1, sugar 100 mmol/L + phenylboronic acid 50 mmol/L, 14 days
[18] = Feces 1, sugar 100 mmol/L, no phenylboronic acid, 0 days
[19] = Feces 1, sugar 100 mmol/L, no phenylboronic acid, 7 days
[20] = Feces 1, sugar 100 mmol/L, no phenylboronic acid, 14 days
[21] = Feces 1, sugar 100 mmol/L, no phenylboronic acid, 21 days
[22] = Feces 2, sugar 50 mmol/L + phenylboronic acid 15 mmol/L, 0 days
[23] = Feces 2, sugar 50 mmol/L + phenylboronic acid 15 mmol/L, 7 days
[24] = Feces 2, sugar 50 mmol/L + phenylboronic acid 15 mmol/L, 14 days
[25] = Feces 2, sugar 50 mmol/L + phenylboronic acid 15 mmol/L, 21 days
[26] = Feces 2, sugar 100 mmol/L + phenylboronic acid 0.5 mmol/L, 0 days
[27] = Feces 2, sugar 100 mmol/L + phenylboronic acid 0.5 mmol/L, 7 days
[28] = Feces 2, sugar 100 mmol/L + phenylboronic acid 0.5 mmol/L, 14 days
[29] = Feces 2, sugar 100 mmol/L + phenylboronic acid 15 mmol/L, 0 days
[30] = Feces 2, sugar 100 mmol/L + phenylboronic acid 15 mmol/L, 0 days (Table 7)
[31] = Feces 2, sugar 100 mmol/L + phenylboronic acid 15 mmol/L, 7 days
[32] = Feces 2, sugar 100 mmol/L + phenylboronic acid 15 mmol/L, 7 days (Table 7)
[33] = Feces 2, sugar 100 mmol/L + phenylboronic acid 15 mmol/L, 14 days
[34] = Feces 2, sugar 100 mmol/L + phenylboronic acid 15 mmol/L, 14 days (Table 7)
[35] = Feces 2, sugar 100 mmol/L + phenylboronic acid 15 mmol/L, 21 days
[36] = Feces 2, sugar 100 mmol/L + phenylboronic acid 50 mmol/L, 0 days
[37] = Feces 2, sugar 100 mmol/L + phenylboronic acid 50 mmol/L, 7 days
[38] = Feces 2, sugar 100 mmol/L + phenylboronic acid 50 mmol/L, 14 days
[39] = Feces 2, sugar 100 mmol/L, no phenylboronic acid, 0 days
[40] = Feces 2, sugar 100 mmol/L, no phenylboronic acid, 7 days
[41] = Feces 2, sugar 100 mmol/L, no phenylboronic acid, 14 days
[42] = Feces 2, sugar 100 mmol/L, no phenylboronic acid, 21 days
[43] = Feces 3, sugar 50 mmol/L + phenylboronic acid 15 mmol/L, 0 days

OC[C@@H](O)[C@@H](O)[C@H](O)[C@@H](O)CO [Sorbitol, sorbitol]
Hb concentration [1]: 291 µg/L | Recovery ratio with respect to Hb concentration after 0 days [1]: 100% | Hb concentration [2]: 300 µg/L | Recovery ratio with respect to Hb concentration after 0 days [2]: 103% | Hb concentration [3]: 300 µg/L | Recovery ratio with respect to Hb concentration after 0 days [3]: 103% | Hb concentration [4]: 296 µg/L | Recovery ratio with respect to Hb concentration after 0 days [4]: 102% | Hb concentration [5]: 310 µg/L | Recovery ratio with respect to Hb after 0 days [5]: 100% | Hb concentration [6]: 206 µg/L | Recovery ratio with respect to Hb after 0 days [6]: 66% | Hb concentration [7]: 178 µg/L | Recovery ratio with respect to Hb after 0 days [7]: 57% | Hb concentration [8]: 287 µg/L | Recovery ratio with respect to Hb concentration after 0 days [8]: 100% | Hb concentration [9]: 301 µg/L | Recovery ratio with respect to Hb after 0 days [9]: 100% | Hb concentration [10]: 292 µg/L | Recovery ratio with respect to Hb concentration after 0 days [10]: 102% | Hb concentration [11]: 297 µg/L | Recovery ratio with respect to Hb after 0 days [11]: 99% | Hb concentration [12]: 294 µg/L | Recovery ratio with respect to Hb concentration after 0 days [12]: 102% | Hb concentration [13]: 295 µg/L | Recovery ratio with respect to Hb after 0 days [13]: 98% | Hb concentration [14]: 290 µg/L | Recovery ratio with respect to Hb concentration after 0 days [14]: 101% | Hb concentration [15]: 281 µg/L | Recovery ratio with respect to Hb after 0 days [15]: 100% | Hb concentration [16]: 274 µg/L | Recovery ratio with respect to Hb after 0 days [16]: 98% | Hb concentration [17]: 275 µg/L | Recovery ratio with respect to Hb after 0 days [17]: 98% | Hb concentration [18]: 283 µg/L | Recovery ratio with respect to Hb concentration after 0 days [18]: 100% | Hb concentration [19]: 143 µg/L | Recovery ratio with respect to Hb concentration after 0 days [19]: 51% | Hb concentration [20]: 102 µg/L | Recovery ratio with respect to Hb concentration after 0 days [20]: 36% | Hb concentration [21]: 97 µg/L | Recovery ratio with respect to Hb concentration after 0 days [21]: 34% | Hb concentration [22]: 281 µg/L | Recovery ratio with respect to Hb concentration after 0 days [22]: 100% | Hb concentration [23]: 280 µg/L | Recovery ratio with respect to Hb concentration after 0 days [23]: 100% | Hb concentration [24]: 252 µg/L | Recovery ratio with respect to Hb concentration after 0 days [24]: 90% | Hb concentration [25]: 222 µg/L | Recovery ratio with respect to Hb concentration after 0 days [25]: 79% | Hb concentration [26]: 301 µg/L | Recovery ratio with respect to Hb after 0 days [26]: 100% | Hb concentration [27]: 173 µg/L | Recovery ratio with respect to Hb after 0 days [27]: 57% | Hb concentration [28]: 154 µg/L | Recovery ratio with respect to Hb after 0 days [28]: 51% | Hb concentration [29]: 274 µg/L | Recovery ratio with respect to Hb concentration after 0 days [29]: 100% | Hb concentration [30]: 299 µg/L | Recovery ratio with respect to Hb after 0 days [30]: 100% | Hb concentration [31]: 276 µg/L | Recovery ratio with respect to Hb concentration after 0 days [31]: 101% | Hb concentration [32]: 300 µg/L | Recovery ratio with respect to Hb after 0 days [32]: 100% | Hb concentration [33]: 246 µg/L | Recovery ratio with respect to Hb concentration after 0 days [33]: 90% | Hb concentration [34]: 298 µg/L | Recovery ratio with respect to Hb after 0 days [34]: 100% | Hb concentration [35]: 219 µg/L | Recovery ratio with respect to Hb concentration after 0 days [35]: 80% | Hb concentration [36]: 275 µg/L | Recovery ratio with respect to Hb after 0 days [36]: 100% | Hb concentration [37]: 279 µg/L | Recovery ratio with respect to Hb after 0 days [37]: 101% | Hb concentration [38]: 284 µg/L | Recovery ratio with respect to Hb after 0 days [38]: 103% | Hb concentration [39]: 277 µg/L | Recovery ratio with respect to Hb concentration after 0 days [39]: 100% | Hb concentration [40]: 113 µg/L | Recovery ratio with respect to Hb concentration after 0 days [40]: 41% | Hb concentration [41]: 77 µg/L | Recovery ratio with respect to Hb concentration after 0 days [41]: 28% | Hb concentration [42]: 51 µg/L | Recovery ratio with respect to Hb concentration after 0 days [42]: 18% | Hb concentration [43]: 283 µg/L | Recovery ratio with respect to Hb concentration after 0 days [43]: 100%
